Biological target: T1, hPTHR1 (Homo sapiens, UniProt Q03431)
T1 construct: similar to that of cells expressing full-length hPTHR1; expressed in transfected cells; host or cells: COS-7 (transient, FuGENE HD)
T1 sequence (Q03431 27-593 E93Y/D94P/K95Y/E96D/A97V/T99D/G100Y/S101A): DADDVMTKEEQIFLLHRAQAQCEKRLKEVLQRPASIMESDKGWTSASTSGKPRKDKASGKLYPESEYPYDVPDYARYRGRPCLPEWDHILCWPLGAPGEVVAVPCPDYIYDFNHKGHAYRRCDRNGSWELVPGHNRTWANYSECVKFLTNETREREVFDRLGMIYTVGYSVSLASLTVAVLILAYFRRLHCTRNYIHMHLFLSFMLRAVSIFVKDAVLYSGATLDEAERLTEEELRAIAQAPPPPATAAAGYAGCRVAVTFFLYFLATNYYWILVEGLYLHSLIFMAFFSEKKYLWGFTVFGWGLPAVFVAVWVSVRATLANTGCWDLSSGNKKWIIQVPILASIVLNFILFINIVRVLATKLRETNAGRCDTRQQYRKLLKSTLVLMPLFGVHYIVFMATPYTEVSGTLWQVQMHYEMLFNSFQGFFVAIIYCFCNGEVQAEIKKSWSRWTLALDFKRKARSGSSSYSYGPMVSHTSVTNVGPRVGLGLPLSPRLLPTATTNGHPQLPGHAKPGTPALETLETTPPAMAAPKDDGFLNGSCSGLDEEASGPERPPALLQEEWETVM
Assay: cAMP production assay in COS-7 cells expressing hPTHR1
Type: cell-based
Settings: COS-7 cells expressing hPTHR1, 20 min
Procedure: COS-7 cells (ATCC) were seeded into a 96-well flat-bottomed plate (1.4 × 10^4 cells per 100 μl per well) and incubated overnight. The next day, the COS-7 cells were transfected by adding 10 μl of a mixture of hPTHR1, hPTHR2 or mutant hPTHR1 plasmid, rat PTHR1 or rat PTHR2 plasmid, or empty vector (0.1 μg per well), FuGENE HD Transfection Reagent (0.4 μl per well, Promega), and Opti-MEM I Reduced Serum Medium (10 μl per well, Life Technologies) to each well. […] The plate was placed in a 37 °C constant-temperature water bath for 20 min to allow the reaction to proceed. After incubation, the liquid in the wells was discarded, the wells were washed with the assay medium (100 μl per well), and the plate was frozen on dry ice. Next, 40 μl of 50 mmol l^−1 HCl was added to each well, and the plate was stored in a freezer set at ≤−20 °C. The cAMP concentrations were measured by using a cAMP EIA kit (GE Healthcare). EC50 values were determined from three independent experiments in duplicate by a non-linear regression Emax model (JMP ver.9.0.2, SAS Institute). The geometric mean of the EC50 values obtained in three experiments in duplicate was calculated using Microsoft Office Excel 2007. […]

`Cc1cc(N2C(=O)NC(=O)C2(C)C)cc(C)c1CCS(=O)(=O)N1CCC2(CC1)N=C(c1ccc(OC(F)(F)F)cc1)NC2=O` [PCO371, 1-{3,5-dimethyl-4-[2-({4-oxo-2-[4-(trifluoromethoxy)phenyl]-1,3,8-triazaspiro[4.5]dec-1-en-8-yl}sulfonyl)ethyl]phenyl}-5,5-dimethylimidazolidine-2,4-dione] showed an EC50 of 2400 nM.
